The values below are quoted from earlier work in patent US12296050B2, “Pharmaceutical compositions comprising maralixibat and uses thereof” (Mirum Pharmaceuticals, Inc., priority 2023, dated 2025).

In the series the target is T1, apical sodium co-dependent bile acid transport (Homo sapiens, UniProt Q12908).
T1 sequence (Q12908 1-348): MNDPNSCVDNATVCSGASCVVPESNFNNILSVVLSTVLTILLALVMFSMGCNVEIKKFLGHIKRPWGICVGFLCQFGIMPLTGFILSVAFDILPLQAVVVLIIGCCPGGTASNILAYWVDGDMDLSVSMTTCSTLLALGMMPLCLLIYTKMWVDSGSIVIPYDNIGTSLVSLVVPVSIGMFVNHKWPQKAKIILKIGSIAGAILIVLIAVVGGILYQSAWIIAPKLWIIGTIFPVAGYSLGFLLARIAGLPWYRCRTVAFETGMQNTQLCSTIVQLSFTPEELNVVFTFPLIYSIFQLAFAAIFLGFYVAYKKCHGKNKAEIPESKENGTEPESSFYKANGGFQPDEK
The conditions noted are these: known from U.S. Pat. No. 5,994,391.

Each structure is given as a SMILES string.

As for `CCCCC1(CCCC)CS(=O)(=O)c2ccc(N(C)C)cc2[C@@H](c2ccc(OCc3ccc(C[N+]45CCN(CC4)CC5)cc3)cc2)[C@H]1O.[Cl-]` [maralixibat chloride], the “Effect on apical sodium co-dependent bile acid transport, in words” value was “inhibits”.
